Experimental data as given in patent US20250276029A1, “ANTIBACTERIAL AND ANTIOXIDANT COMPOSITION CONTAINING GRAPE CALLUS CULTURE MEDIUM AS ACTIVE INGREDIENT” (INGR INCORPORATED, priority 2021, published 2025).

How the values were obtained:
[1] = system: P. acnes 3320 (KCTC 3320); test: MBC analysis for acne bacteria, P. acnes 3320; assay type: cell-based, Propionibacterium acnes; settings: for MBC, concentration of highest growth inhibition effect: P. acnes 3320, 72-hour; for MBC, concentration of highest growth inhibitory effect: P. acnes 3320, 48 hr
Experimental: (§1) To confirm the antibacterial effect of grape callus culture solution on acne bacteria, Propionibacterium acnes (KCTC 3314, KCTC 3320, KCTC 5012) was cultured in RCM (Reinforced Clostridial Medium) at 37° C., anaerobic conditions. The Minimum Bactericidal Concentration (MBC) is an indicator measuring the bactericidal properties of an antibacterial substance, and the grape callus culture extract of the present invention was diluted to concentrations ranging […], and the minimum concentration inhibiting the growth of three strains of P. acnes was determined. Specifically, the minimum bactericidal concentration was measured using a plate measuring the MIC of <3-1>.

[2] = system: P. acnes 5012 (KCTC 5012); test: MBC analysis for acne bacteria, P. acnes 5012; assay type: cell-based, Propionibacterium acnes; settings: for MBC, concentration of highest growth inhibition effect: P. acnes 5012, 72-hour; for MBC, concentration of highest growth inhibitory effect: P. acnes 5012, 48 hr
Experimental: as §1

[3] = DPPH analysis (antioxidant effect); settings: 500 μg/ml
Experimental: DPPH analysis was performed to confirm the antioxidant effect of grape callus culture solution. Specifically, 0.2 mM DPPH (1,1-Diphenyl-2-picryhydrazyl) solution was prepared using 80% methanol, and then 180 μl of DPPH and 20 μl of the sample were well mixed and reacted at room temperature for 10 minutes, and then absorbance was measured with an ELISA reader at 517 nm. On the other hand, the sample was diluted based on epsilon-Viniferin content and treated in a well for comparison with Viniferin. In addition, the control method used DPPH reagent in the dilution solvent of the sample instead of the sample. Ascorbic acid was treated as a positive control.

[4] = system: P. acnes 3314 (KCTC 3314); test: MBC analysis for acne bacteria, P. acnes 3314; assay type: cell-based, Propionibacterium acnes; settings: for MBC, concentration of highest growth inhibition effect: P. acnes 3314, 72-hour; for MBC, concentration of highest growth inhibitory effect: P. acnes 3314, 48 hr
Experimental: as §1

[5] = system: P. acnes 3314 (KCTC 3314); test: MIC for acne bacteria, P. acnes 3314; assay type: cell-based, Propionibacterium acnes; settings: P. acnes 3314, 72 hours, anaerobic
Experimental: (§2) To confirm the antibacterial effect of grape callus culture solution on acne bacteria, Propionibacterium acnes (KCTC 3314, KCTC 3320, KCTC 5012) was cultured in RCM (Reinforced Clostridial Medium) at 37° C., anaerobic conditions. MIC is an index for measuring bacteriostatic characteristics of antibacterial substances, and after diluting the grape callus culture solution of the present invention to a concentration between […], the minimum concentration that inhibits the growth of three kinds of P. acnes was examined. Specifically, three kinds of P. acnes cultured in <3-1> were incubated in an incubator at 37° C. for 72 hours under anaerobic conditions in 5 ml of RCM liquid medium. In addition, a master plate was prepared at 8 concentrations by diluting ½ from the highest concentration to DW in 96 well plates. 50 μl of each diluted sample was then transferred to another 96-well plate. […] To measure the MIC, 0 hour OD600 nm was measured with a Microplate Reader. Then, after incubating the 96-well plate in 72-hour 37° C., incubation under anaerobic conditions, measuring OD600 nm for 72 hours with a Microplate Reader, subtracting the 0-hour OD value from the 72-hour OD value, the growth of three P. acnes according to control and sample concentration was compared, and antibacterial activity was confirmed through OD value comparison.

[6] = system: P. acnes 5012 (KCTC 5012); test: MIC for acne bacteria, P. acnes 5012; assay type: cell-based, Propionibacterium acnes; settings: P. acnes 5012, 72 hours, anaerobic
Experimental: as §2

[7] = system: P. acnes 3320 (KCTC 3320); test: MIC for acne bacteria, P. acnes 3320; assay type: cell-based, Propionibacterium acnes; settings: P. acnes 3320, 72 hours, anaerobic
Experimental: as §2

[8] = system: Raw264.7 (murine macrophage); test: MTT assay cytotoxicity, Raw264.7 cells; assay type: cell-based; settings: mouse, 24 h
Experimental: (§3) MTT assay was performed using MNT-1, Raw264.7 cells to confirm the cytotoxicity of grape callus cultures, epsilon-Viniferin and delta-Viniferin. Specifically, Raw264.7 (murine macrophage) was incubated at 37° C., 5% CO2 in DMEM (High glucose) medium with 10% FBS and 1% gentamicine added, and MNT-1 (human melanoma cell) was incubated at 37° C., 5% CO2 in DMEM/MEM (High glucose) medium with 20% FBS and 1% gentamicine added. MNT-1 (10^4 cell/well) and Raw264.7 (2×10^4 cell/well) were each incubated in 96 wells, the samples were diluted with medium and treated in each well. After 24 hours, the MTT solution was treated at a concentration of 100 μg/mL and reacted at 37° C., 5% CO2 incubator for 1 hour. All cultures were then removed, 100 μl of acid-isopropanol was added to each well, and absorbance was measured with an ELISA reader at 570 nm. In addition, the sample was diluted based on epsilon-Viniferin content and treated in a well for comparison with Viniferin.

P. acnes 3320 = test: Disc diffusion test; assay type: cell-based, Propionibacterium acnes; settings: for clear zone diameter, 1: column 1; for clear zone diameter, 2: column 2
Experimental: The disc diffusion test is an antibacterial agent sensitivity test method of bacteria, and if there is an antibacterial effect, a clear zone is formed around the disk paper, and the antibacterial ability can be measured through the degree of clear zone formation. Specifically, P. acnes 3320 was incubated in 5 ml of RCM liquid medium in an incubator at 37° C. for 72 hours under anaerobic conditions. Then, the bacteria diluted with 5×10^5 1×10^6 were moistened with a cotton swab and evenly smeared on RCM agar medium. The disk paper was placed on an agar plate, the disk paper was moistened with a sample of the stock solution, and then incubated in a 72-hour 37° C. incubator under anaerobic conditions, and then the clear zone size was measured using a Vernier Caliper.

[9] = system: MNT-1 (human melanoma cell); test: MTT assay cytotoxicity, MNT-1 cells; assay type: cell-based; settings: 24 h
Experimental: as §3

Compound	MBC, concentration of highest growth inhibition effect [1]	MBC, concentration of highest growth inhibitory effect [1]	MBC, concentration of highest growth inhibition effect [2]	MBC, concentration of highest growth inhibitory effect [2]	radical scavenging activity (DPPH) compared to the control group [3]	MBC, concentration of highest growth inhibition effect [4]	MBC, concentration of highest growth inhibitory effect [4]	MIC, average concentration that inhibits growth [5]	MIC, average concentration that inhibits growth [6]	MIC, average concentration that inhibits growth [7]	concentration showing no cytotoxicity (MTT) [8]	clear zone diameter, Average (P. acnes 3320; ε-viniferin 5 μg)	clear zone diameter, 1 (P. acnes 3320; ε-viniferin 5 μg)	clear zone diameter, 2 (P. acnes 3320; ε-viniferin 5 μg)	clear zone diameter, Average (P. acnes 3320; ε-viniferin 10 μg)	clear zone diameter, 1 (P. acnes 3320; ε-viniferin 10 μg)	clear zone diameter, 2 (P. acnes 3320; ε-viniferin 10 μg)	concentration showing no cytotoxicity (MTT) [9]
Oc1ccc(C2Oc3ccc(/C=C/c4cc(O)cc(O)c4)cc3C2c2cc(O)cc(O)c2)cc1 (stereo not drawn) [delta-Viniferin, trans-δ-Viniferin]	did not show growth inhibition	did not show growth inhibition	did not show growth inhibition	did not show growth inhibition	approximately 25%	did not show growth inhibition	did not show growth inhibition	did not show growth inhibition	did not show growth inhibition	did not show growth inhibition								
Oc1ccc(/C=C/c2cc(O)cc3c2C(c2cc(O)cc(O)c2)C(c2ccc(O)cc2)O3)cc1 (stereo not drawn) [epsilon-Viniferin, trans-ε-viniferin]	did not show growth inhibition	did not show growth inhibition	did not show growth inhibition	did not show growth inhibition	approximately 25%	did not show growth inhibition	did not show growth inhibition	did not show growth inhibition	did not show growth inhibition	did not show growth inhibition	≤ 20000 ng/mL	0 mm	0 mm	0 mm	0 mm	0 mm	0 mm	≤ 20000 ng/mL
